Here are results for 15 compounds from patent US7671054B1, “Reverse-turn mimetics and method relating thereto” (Choongwae Pharma Corporation, priority 2001, dated 2010).

For orientation: inhibition means the drop in the measured response relative to a control, in per cent. Higher therefore signals a response far below the control. A word on the IC50: it is the concentration that inhibits the measured activity by half.

For one assay, the system named is Survivin. Briefly: Effect on survivin expression (Table 9). The class given is cell-based. As to conditions: 5 uM. The source says: (§1) The effects of various compounds having general formula (I) on survivin and TCF4 expression were characterized.
Take `CN1CC(=O)N2[C@@H](CN(Cc3cccc4cnn(C)c34)C(=O)[C@@H]2Cc2ccc(O)cc2)N1C(=O)NCc1ccccc1`: the inhibition at 5 µM was 82%.

For `Cc1ccc(N(C)C)c(CN2C[C@@H]3N(C(=O)CN(C)N3C(=O)NCc3ccccc3)[C@@H](Cc3ccc(O)cc3)C2=O)c1`, the inhibition at 5 µM turned out to be 0%.

For the compound `CN(C)c1ccc(Cl)cc1CN1C[C@@H]2N(C(=O)CN(C)N2C(=O)NCc2ccccc2)[C@@H](Cc2ccc(O)cc2)C1=O`, the inhibition at 5 µM was 0%.

Compound `CC(C)N(C)c1ccc(Cl)c(CN2C[C@@H]3N(C(=O)CN(C)N3C(=O)NCc3ccccc3)[C@@H](Cc3ccc(O)cc3)C2=O)c1` displayed an inhibition at 5 µM of 25%.

For the compound `Cc1cc(C)c(N(C)C)c(CN2C[C@@H]3N(C(=O)CN(C)N3C(=O)NCc3ccccc3)[C@@H](Cc3ccc(O)cc3)C2=O)c1`, the inhibition at 5 µM stood at 0%.

In turn, `CN(C)c1cc(F)c(F)cc1CN1C[C@@H]2N(C(=O)CN(C)N2C(=O)NCc2ccccc2)[C@@H](Cc2ccc(O)cc2)C1=O` came in with an inhibition at 5 µM of 9%.

Compound `CN1CC(=O)N2C(Cc3ccc(O)cc3)C(=O)N(Cc3cccc4cccnc34)CC2N1C(=O)NCc1ccccc1` (centres unmarked) registered an inhibition at 5 µM of 97%.

Regarding `Cc1ccc(N(C)C(C)C)c(CN2C[C@@H]3N(C(=O)CN(C)N3C(=O)NCc3ccccc3)[C@@H](Cc3ccc(O)cc3)C2=O)c1`, the inhibition at 5 µM was determined as 14%.

`CN(C)c1ccccc1CN1C[C@@H]2N(C(=O)CN(C)N2C(=O)NCc2ccccc2)[C@@H](Cc2ccc(O)cc2)C1=O` displayed an inhibition at 5 µM of 41%.

Compound `CC(C)N(C)c1ccccc1CN1C[C@@H]2N(C(=O)CN(C)N2C(=O)NCc2ccccc2)[C@@H](Cc2ccc(O)cc2)C1=O` registered an inhibition at 5 µM of 27%.

The compound `CCN(C)c1cccc(CN2C[C@@H]3N(C(=O)CN(C)N3C(=O)NCc3ccccc3)[C@@H](Cc3ccc(O)cc3)C2=O)c1` gave an inhibition at 5 µM of 46%.

The compound `CN1CC(=O)N2[C@@H](Cc3ccc(O)cc3)C(=O)N(Cc3c(Cl)cc(Cl)c4cccnc34)C[C@@]2(C)N1C(=O)NCc1ccccc1` yielded an inhibition at 5 µM of 6%.

The compound `CN(C)c1c(CN2C[C@@H]3N(C(=O)CN(C)N3C(=O)NCc3ccccc3)[C@@H](Cc3ccc(O)cc3)C2=O)cccc1C(F)(F)F` returned an inhibition at 5 µM of 0%.

For `CCN(CC)c1cccc(CN2C[C@@H]3N(C(=O)CN(C)N3C(=O)NCc3ccccc3)[C@@H](Cc3ccc(O)cc3)C2=O)c1`, the inhibition at 5 µM amounted to 0%.

`Cc1cccc(N(C)C)c1CN1C[C@@H]2N(C(=O)CN(C)N2C(=O)NCc2ccccc2)[C@@H](Cc2ccc(O)cc2)C1=O` came in with an inhibition at 5 µM of 8%.

Staying with this assay, now noted: 25 uM.
On to `CN1CC(=O)N2[C@@H](CN(Cc3cccc4cnn(C)c34)C(=O)[C@@H]2Cc2ccc(O)cc2)N1C(=O)NCc1ccccc1`, for which the inhibition at 25 µM was 97%.

`Cc1ccc(N(C)C)c(CN2C[C@@H]3N(C(=O)CN(C)N3C(=O)NCc3ccccc3)[C@@H](Cc3ccc(O)cc3)C2=O)c1`: at 25 µM the inhibition was 94%.

For `CN(C)c1ccc(Cl)cc1CN1C[C@@H]2N(C(=O)CN(C)N2C(=O)NCc2ccccc2)[C@@H](Cc2ccc(O)cc2)C1=O`, at 25 µM the inhibition was 93%.

`CC(C)N(C)c1ccc(Cl)c(CN2C[C@@H]3N(C(=O)CN(C)N3C(=O)NCc3ccccc3)[C@@H](Cc3ccc(O)cc3)C2=O)c1` came in with an inhibition at 25 µM of 44%.

Turning to `Cc1cc(C)c(N(C)C)c(CN2C[C@@H]3N(C(=O)CN(C)N3C(=O)NCc3ccccc3)[C@@H](Cc3ccc(O)cc3)C2=O)c1`, at 25 µM the inhibition was 84%.

Regarding `CN(C)c1cc(F)c(F)cc1CN1C[C@@H]2N(C(=O)CN(C)N2C(=O)NCc2ccccc2)[C@@H](Cc2ccc(O)cc2)C1=O`, testing at 25 µM gave an inhibition of 91%.

Take `CN1CC(=O)N2C(Cc3ccc(O)cc3)C(=O)N(Cc3cccc4cccnc34)CC2N1C(=O)NCc1ccccc1` (centres unmarked): the inhibition at 25 µM was determined as 100%.

Regarding `Cc1ccc(N(C)C(C)C)c(CN2C[C@@H]3N(C(=O)CN(C)N3C(=O)NCc3ccccc3)[C@@H](Cc3ccc(O)cc3)C2=O)c1`, the inhibition at 25 µM was 99%.

Consider `CN(C)c1ccccc1CN1C[C@@H]2N(C(=O)CN(C)N2C(=O)NCc2ccccc2)[C@@H](Cc2ccc(O)cc2)C1=O`, for which the inhibition at 25 µM came to 92%.

Consider `CC(C)N(C)c1ccccc1CN1C[C@@H]2N(C(=O)CN(C)N2C(=O)NCc2ccccc2)[C@@H](Cc2ccc(O)cc2)C1=O`, for which testing at 25 µM gave an inhibition of 98%.

As for `CCN(C)c1cccc(CN2C[C@@H]3N(C(=O)CN(C)N3C(=O)NCc3ccccc3)[C@@H](Cc3ccc(O)cc3)C2=O)c1`, the inhibition at 25 µM was 96%.

`CN1CC(=O)N2[C@@H](Cc3ccc(O)cc3)C(=O)N(Cc3c(Cl)cc(Cl)c4cccnc34)C[C@@]2(C)N1C(=O)NCc1ccccc1` returned an inhibition at 25 µM of 58%.

Compound `CN(C)c1c(CN2C[C@@H]3N(C(=O)CN(C)N3C(=O)NCc3ccccc3)[C@@H](Cc3ccc(O)cc3)C2=O)cccc1C(F)(F)F` came in with an inhibition at 25 µM of 91%.

Consider `CCN(CC)c1cccc(CN2C[C@@H]3N(C(=O)CN(C)N3C(=O)NCc3ccccc3)[C@@H](Cc3ccc(O)cc3)C2=O)c1`, for which 25 µM produced 77% inhibition.

Regarding `Cc1cccc(N(C)C)c1CN1C[C@@H]2N(C(=O)CN(C)N2C(=O)NCc2ccccc2)[C@@H](Cc2ccc(O)cc2)C1=O`, the inhibition at 25 µM worked out at 4%.

The subject of a further assay is TCF4. Put plainly: Effect on TCF4 expression (Table 9). The class given is cell-based.
Settings: not given
From the text: as §1
In turn, `CN1CC(=O)N2[C@@H](CN(Cc3cccc4cnn(C)c34)C(=O)[C@@H]2Cc2ccc(O)cc2)N1C(=O)NCc1ccccc1` yielded an IC50 of 2.8 ± 0.4 µM.

The compound `Cc1ccc(N(C)C)c(CN2C[C@@H]3N(C(=O)CN(C)N3C(=O)NCc3ccccc3)[C@@H](Cc3ccc(O)cc3)C2=O)c1` had an IC50 of 2.6 ± 0.4 µM.

As for `CN(C)c1ccc(Cl)cc1CN1C[C@@H]2N(C(=O)CN(C)N2C(=O)NCc2ccccc2)[C@@H](Cc2ccc(O)cc2)C1=O`, half-maximal inhibition (IC50) required 2.2 ± 0.2 µM.

In turn, `CC(C)N(C)c1ccc(Cl)c(CN2C[C@@H]3N(C(=O)CN(C)N3C(=O)NCc3ccccc3)[C@@H](Cc3ccc(O)cc3)C2=O)c1` gave an IC50 of 27.1 ± 4.6 µM.

With `Cc1cc(C)c(N(C)C)c(CN2C[C@@H]3N(C(=O)CN(C)N3C(=O)NCc3ccccc3)[C@@H](Cc3ccc(O)cc3)C2=O)c1`, the IC50 came to 4.8 ± 0.4 µM.

`CN(C)c1cc(F)c(F)cc1CN1C[C@@H]2N(C(=O)CN(C)N2C(=O)NCc2ccccc2)[C@@H](Cc2ccc(O)cc2)C1=O` yielded an IC50 of 1.4 ± 0.2 µM.

For `CN1CC(=O)N2C(Cc3ccc(O)cc3)C(=O)N(Cc3cccc4cccnc34)CC2N1C(=O)NCc1ccccc1` (centres unmarked), the IC50 was approximately 2.2 µM.

Turning to `Cc1ccc(N(C)C(C)C)c(CN2C[C@@H]3N(C(=O)CN(C)N3C(=O)NCc3ccccc3)[C@@H](Cc3ccc(O)cc3)C2=O)c1`, the 50% inhibitory concentration (IC50) came out at 10.7 ± 1.9 µM.

In the case of `CN(C)c1ccccc1CN1C[C@@H]2N(C(=O)CN(C)N2C(=O)NCc2ccccc2)[C@@H](Cc2ccc(O)cc2)C1=O`, the IC50 turned out to be 5.2 ± 0.7 µM.

Consider `CC(C)N(C)c1ccccc1CN1C[C@@H]2N(C(=O)CN(C)N2C(=O)NCc2ccccc2)[C@@H](Cc2ccc(O)cc2)C1=O`, for which inhibition was half-maximal at 10.7 ± 1.7 µM (IC50).

With `CCN(C)c1cccc(CN2C[C@@H]3N(C(=O)CN(C)N3C(=O)NCc3ccccc3)[C@@H](Cc3ccc(O)cc3)C2=O)c1`, the IC50 came out at 4.4 ± 0.6 µM.

Compound `CN1CC(=O)N2[C@@H](Cc3ccc(O)cc3)C(=O)N(Cc3c(Cl)cc(Cl)c4cccnc34)C[C@@]2(C)N1C(=O)NCc1ccccc1` had an IC50 of 11.2 ± 1.5 µM.

The compound `CN(C)c1c(CN2C[C@@H]3N(C(=O)CN(C)N3C(=O)NCc3ccccc3)[C@@H](Cc3ccc(O)cc3)C2=O)cccc1C(F)(F)F` returned an IC50 of 5.2 ± 1.1 µM.

On to `CCN(CC)c1cccc(CN2C[C@@H]3N(C(=O)CN(C)N3C(=O)NCc3ccccc3)[C@@H](Cc3ccc(O)cc3)C2=O)c1`, for which the IC50 amounted to 3.5 ± 0.3 µM.
